These results are taken from EPA's ToxRefDB 2.

Series [1] relates to rat. Conditions: Subchronic oral toxicity in rodents, other, Feed, dose end: 13 week, group: systemic.
The subject of series [2] is mouse. The settings on record: Subchronic dermal toxicity, cd1, Topical, dose end: 49 day, group: systemic.
The test system of series [3] is rat. Conditions: Subchronic oral toxicity in rodents, sprague dawley, Gavage/Intubation, dose end: 13 week, group: systemic.
The test system of series [4] is rat. Conditions: Prenatal developmental toxicity study, sprague dawley, Dermal, Topical, dose end: 15 GD, group: maternal.
For series [5], the system named is rat. Conditions: Sub-acute repeat dose toxicity, fischer, Oral, Water, dose end: 14 day, group: systemic.
For series [6], the system named is mouse. Conditions: Subchronic oral toxicity in rodents, b6c3f1, Water, dose end: 13 week.
The subject of series [7] is mouse. The settings on record: Sub-acute repeat dose toxicity, b6c3f1, Oral, Water, dose end: 14 day, group: systemic.
The subject of series [8] is mouse. Conditions: Combined chronic toxicity/carcinogenicity; b6c3f1; Oral; Water; dose end: 105 week; group: systemic; systemic / in life observation / body weight / body weight.
The test system of series [9] is rat. Conditions: Prenatal developmental toxicity study, sprague dawley, Oral, Gavage/Intubation, dose end: 15 GD.
Series [10] has as its system rat. The settings on record: Subchronic oral toxicity in rodents, fischer, Water, dose end: 14 week, group: systemic.
Series [11] has as its system rat. The settings on record: Combined chronic toxicity/carcinogenicity, fischer, Oral, Water, dose end: 105 week, group: systemic.
For series [12], the system named is rat. Conditions: Sub-acute repeat dose toxicity, sprague dawley, Oral, Gavage/Intubation, dose end: 28 day, group: systemic.
The subject of series [13] is rat. The settings on record: Combined chronic toxicity/carcinogenicity; sprague dawley; Oral; Feed; dose end: 2 year; group: systemic; systemic / in life observation / body weight / body weight + systemic / in life observation / body weight / body weight gain + systemic / in….
Series [14] relates to rat. Conditions: Neurotoxicity screening battery, other, Oral, Feed, dose end: 90 day, group: cannot be grouped.
Series [15] concerns mouse. The settings on record: Subchronic oral toxicity in rodents, b6c3f1, Feed, dose end: 90 day, group: systemic, systemic / organ weight / liver / absolute + systemic / organ weight / liver / relative to body weight + systemic / organ weight / liver / ….
For series [16], the system named is rat. Conditions: Sub-acute repeat dose toxicity; other; Oral; Feed; dose end: 28 day; group: systemic; systemic / clinical chemistry / glucose / glucose + systemic / in life observation / body weight / body weight + systemic / in life ….
Series [17] deals with mouse. The settings on record: Sub-acute repeat dose toxicity, b6c3f1, Oral, Feed, dose end: 28 day, group: systemic.
Series [18] deals with rat. Conditions: Prenatal developmental toxicity study, sprague dawley, Dermal, Topical, dose end: 15 GD, group: maternal. This is another data set of the same source.
In series [19] the test system is mouse. Conditions: Combined chronic toxicity/carcinogenicity, b6c3f1, Oral, Feed, dose end: 18 month, group: systemic.
The subject of series [20] is dog. Conditions: Subchronic oral toxicity in nonrodent, beagle, Feed, dose end: 13 week, group: systemic.
The subject of series [21] is rat. Conditions: Prenatal developmental toxicity study, sprague dawley, Dermal, Topical, dose end: 15 GD.
The mark [22] stands for this setting: systemic / hematology / erythrocyte (rbc) count differential / erythrocyte (rbc) + systemic / in life observation / body weight / body ….
The mark [23] stands for this setting: systemic / urinalysis / ketones / ketones.
[24] abbreviates: systemic / in life observation / clinical signs / erythema + systemic / pathology microscopic / skin / edema.
Setting [25] is: systemic / in life observation / clinical signs / erythema + systemic / pathology microscopic / skin / edema + systemic / in life ….
Setting [26] is: systemic / organ weight / kidney / relative to body weight + systemic / organ weight / liver / absolute + systemic / organ weight / liver / ….
The mark [27] stands for this setting: systemic / in life observation / body weight / body weight + systemic / in life observation / clinical signs / [other] + systemic / in life ….
[28] abbreviates: systemic / in life observation / body weight / body weight + systemic / in life observation / clinical signs / red or crusty deposits around….
Setting [29] is: systemic / in life observation / body weight / body weight + systemic / in life observation / body weight / body weight gain.
The mark [30] stands for this setting: systemic / in life observation / body weight / body weight + systemic / in life observation / body weight / body weight gain + systemic / in….
Setting [31] is: group: maternal, reproductive / reproductive performance / estrous cycle / length.
Setting [32] is: group: systemic, systemic / in life observation / clinical signs / dehydration + systemic / in life observation / clinical signs / feces, discoloration + ….
Setting [33] is: group: systemic, systemic / in life observation / water consumption / water consumption.
Setting [34] is: systemic / in life observation / body weight / body weight gain + systemic / organ weight / liver / absolute + systemic / organ weight / ….
Setting [35] is: group: developmental, systemic / in life observation / body weight / fetal weight.
The mark [36] stands for this setting: group: maternal, systemic / in life observation / clinical signs / ataxia + systemic / in life observation / clinical signs / lethargy + systemic / in life ….
The mark [37] stands for this setting: systemic / clinical chemistry / bile acids / bile acids + systemic / in life observation / body weight / body weight + systemic / in life ….
[38] abbreviates: systemic / in life observation / body weight / body weight + systemic / in life observation / body weight / body weight gain + systemic / ….
Setting [39] is: systemic / pathology microscopic / kidney / hyperplasia + systemic / pathology microscopic / kidney / nephropathy + systemic / in life ….
The mark [40] stands for this setting: systemic / clinical chemistry / phosphorus / phosphorus + systemic / clinical chemistry / bilirubin / total bilirubin + systemic / pathology….
Setting [41] is: systemic / pathology gross / uterus / fluid contents.
[42] abbreviates: systemic / pathology microscopic / kidney / hypertrophy.
Setting [43] is: systemic / pathology microscopic / kidney / hypertrophy + systemic / in life observation / mortality / mortality.
Setting [44] is: reproductive / reproductive performance / aborted / aborted + reproductive / reproductive performance / resorptions / resorptions + systemic….
The mark [45] stands for this setting: systemic / in life observation / clinical signs / desquamation + systemic / in life observation / clinical signs / urine, discoloration.
The mark [46] stands for this setting: systemic / pathology microscopic / liver / hepatocellular adenoma + systemic / pathology microscopic / liver / hepatocellular carcinoma + ….
Setting [47] is: systemic / hematology / platelet / platelet.
Where [48] appears, read: systemic / hematology / platelet / platelet + systemic / in life observation / body weight / body weight gain + systemic / clinical ….
Setting [49] is: group: developmental, developmental / developmental malformation / bone / absent + developmental / developmental malformation / bone / fused + developmental / ….
Setting [50] is: group: maternal, reproductive / reproductive performance / resorptions / resorptions + systemic / in life observation / body weight / body weight gain + ….
The mark [51] stands for this setting: group: maternal, systemic / in life observation / clinical signs / desquamation.

The structures appear in SMILES notation.

Turning to `CC(=O)CCc1ccc(O)cc1` [4-(4-Hydroxyphenyl)butan-2-one], in [1] (setting [22]), the LOAEL – broadly, the lowest dose or exposure tested at which an adverse effect was seen – was over 678 mg/kg/day and the NOAEL (in general, the highest dose or exposure tested at which no adverse effect was seen) was at least 678 mg/kg/day. In series [1] (setting [23]), this compound gave an LEL of 65 mg/kg/day and an NEL of under 65 mg/kg/day.

On to `Cc1cc(O)cc(C)c1Cl` [4-Chloro-3,5-dimethylphenol], for which the LOAEL in series [2] (setting [24]) worked out at 213 mg/kg/day; in [3] (setting [26]), 2500 mg/kg/day. The NOAEL in series [2] (setting [24]) was under 213 mg/kg/day; in series [3] (setting [26]) it was 1250 mg/kg/day. In addition, the LEL in series [2] (setting [25]) came to 213 mg/kg/day; in series [3] (systemic / in life observation / body weight / body weight gain + systemic / in life observation / clinical signs / salivation + systemic / …) it was 1250 mg/kg/day. In addition, the NEL in [2] (setting [25]) was under 213 mg/kg/day; in series [3] (systemic / in life observation / clinical signs / salivation), 25 mg/kg/day.

As for `c1ccc2c(c1)Oc1ccccc1[As]2O[As]1c2ccccc2Oc2ccccc21` [10,10'-Oxybisphenoxarsine], in series [4] (setting [27]), the lowest-observed-adverse-effect level (LOAEL) was over 30 mg/kg/day and the NOAEL was at least 30 mg/kg/day. Further, in series [4] (setting [28]), the LEL turned out to be 0.3 mg/kg/day and the NEL is under 0.3 mg/kg/day.

With `CC(CO)OC(C)CO.CC(O)COCC(C)O` (stereo unspecified) [Dipropylene glycol], the LOAEL is 11100 mg/kg/day in series [5] (setting [29]); over 14700 mg/kg/day in series [6] (setting [31]); over 11000 mg/kg/day in [6] (setting [32]); 10700 mg/kg/day in series [7] (systemic / in life observation / body weight / body weight gain); 1950 mg/kg/day in series [8]; over 5000 mg/kg/day in series [9] (setting [35]). For the same compound, the LOAEL in [9] (setting [36]) was over 5000 mg/kg/day; in [10] (setting [38]), 8950 mg/kg/day; in [11] (systemic / pathology microscopic / kidney / hyperplasia + systemic / pathology microscopic / kidney / nephropathy), 470 mg/kg/day. Besides, the NOAEL in series [5] (setting [30]) was 5420 mg/kg/day; in series [6] (setting [31]), at least 14700 mg/kg/day; in series [6] (setting [32]), at least 11000 mg/kg/day; in series [7] (setting [34]), 5330 mg/kg/day; in series [8], 1040 mg/kg/day; in [9] (setting [35]), at least 5000 mg/kg/day. Besides, the NOAEL is at least 5000 mg/kg/day in [9] (setting [36]), 3340 mg/kg/day in [10] (setting [38]) and 115 mg/kg/day in [11] (setting [39]). Besides, the LEL in series [5] (systemic / organ weight / liver / absolute + systemic / organ weight / liver / relative to body weight) is 2650 mg/kg/day; in series [6] (setting [31]) it was 14700 mg/kg/day; in series [6] (setting [33]), 715 mg/kg/day; in [7] (setting [34]) it was 10700 mg/kg/day; in series [8], 1950 mg/kg/day; in series [9] (setting [35]), 5000 mg/kg/day. Besides, the LEL in series [9] (setting [36]) is 2000 mg/kg/day; in series [10] (setting [37]) it was 425 mg/kg/day; in series [11] (systemic / pathology microscopic / kidney / hyperplasia + systemic / pathology microscopic / kidney / nephropathy + systemic / pathology …), 470 mg/kg/day. For the same compound, the NEL is 1450 mg/kg/day in [5] (systemic / organ weight / liver / absolute + systemic / organ weight / liver / relative to body weight + systemic / in life observation / …); 7430 mg/kg/day in series [6] (setting [31]); under 715 mg/kg/day in [6] (setting [33]); 5330 mg/kg/day in series [7] (systemic / in life observation / clinical signs / abnormal gait + systemic / in life observation / clinical signs / emaciation + systemic / …); 1040 mg/kg/day in [8]; 2000 mg/kg/day in series [9] (setting [35]). Also, the NEL in [9] (setting [36]) was 800 mg/kg/day; in series [10] (setting [37]), under 425 mg/kg/day; in series [11] (setting [39]), 115 mg/kg/day.

As to `O=C([O-])CNCO.[Na+]` [Glycine, N-(hydroxymethyl)-, monosodium salt], in series [12] (setting [40]), the LOAEL was found to be 640 mg/kg/day and the no observed adverse effect level (NOAEL) came to 160 mg/kg/day. Besides, in series [12] (setting [41]), the LEL is 40 mg/kg/day and the NEL was under 40 mg/kg/day.

Consider `CN1CCCC1=O` [N-Methyl-2-pyrrolidone], for which the LEL is 678 mg/kg/day in series [13]; 433 mg/kg/day in [14] (setting [30]); 619 mg/kg/day in series [15]; 1230 mg/kg/day in series [16]; 2130 mg/kg/day in series [17] (setting [42]); 500 mg/kg/day in series [18] (setting [45]). Besides, the LEL in series [19] (systemic / organ weight / liver / absolute + systemic / organ weight / liver / relative to body weight + systemic / pathology microscopic / …) was found to be 173 mg/kg/day; in [20] (setting [47]) it was 25 mg/kg/day; in [21] (setting [49]) it was 750 mg/kg/day; in [21] (setting [51]), 75 mg/kg/day. Besides, the lowest-observed-adverse-effect level (LOAEL) was over 678 mg/kg/day in [13]; 433 mg/kg/day in series [14] (setting [29]); 619 mg/kg/day in [15]; 1230 mg/kg/day in series [16]; 2130 mg/kg/day in [17] (setting [42]); over 2500 mg/kg/day in series [18] (setting [44]). The LOAEL in series [19] (setting [46]) was over 1090 mg/kg/day; in [20] (setting [48]) it was over 250 mg/kg/day; in series [21] (setting [49]), over 750 mg/kg/day; in series [21] (setting [50]) it was over 750 mg/kg/day. Further, the NEL in series [13] was 207 mg/kg/day; in [14] (setting [30]), 169 mg/kg/day; in series [15] it was 277 mg/kg/day; in [16], 429 mg/kg/day; in [17] (setting [43]), 720 mg/kg/day; in series [18] (setting [45]), under 500 mg/kg/day. The NEL in series [19] (setting [46]) is 89 mg/kg/day; in series [20] (setting [47]) it was under 25 mg/kg/day; in series [21] (setting [49]), 237 mg/kg/day; in [21] (setting [51]), under 75 mg/kg/day. Also, the no observed adverse effect level (NOAEL) in series [13] is at least 678 mg/kg/day; in [14] (setting [30]) it was 169 mg/kg/day; in series [15], 277 mg/kg/day; in series [16], 429 mg/kg/day; in [17] (setting [43]), 720 mg/kg/day; in series [18] (setting [44]), at least 2500 mg/kg/day. Besides, the NOAEL was at least 1090 mg/kg/day in series [19] (setting [46]), at least 250 mg/kg/day in series [20] (setting [48]), at least 750 mg/kg/day in [21] (setting [49]) and at least 750 mg/kg/day in series [21] (setting [50]).
